# Reference: patent US6362173B1, “Methods for treating psychosis associated with cocaine addiction with glucocorticoid receptor antagonists” (The Board of Trustees of the Leland Stanford Junior …, priority 1997, dated 2002)
# Experiments:
# [1] = target: T1, glucocorticoid (GR) receptor (Homo sapiens, UniProt P04150); conditions: cited from earlier work
# T1 sequence (P04150 1-777): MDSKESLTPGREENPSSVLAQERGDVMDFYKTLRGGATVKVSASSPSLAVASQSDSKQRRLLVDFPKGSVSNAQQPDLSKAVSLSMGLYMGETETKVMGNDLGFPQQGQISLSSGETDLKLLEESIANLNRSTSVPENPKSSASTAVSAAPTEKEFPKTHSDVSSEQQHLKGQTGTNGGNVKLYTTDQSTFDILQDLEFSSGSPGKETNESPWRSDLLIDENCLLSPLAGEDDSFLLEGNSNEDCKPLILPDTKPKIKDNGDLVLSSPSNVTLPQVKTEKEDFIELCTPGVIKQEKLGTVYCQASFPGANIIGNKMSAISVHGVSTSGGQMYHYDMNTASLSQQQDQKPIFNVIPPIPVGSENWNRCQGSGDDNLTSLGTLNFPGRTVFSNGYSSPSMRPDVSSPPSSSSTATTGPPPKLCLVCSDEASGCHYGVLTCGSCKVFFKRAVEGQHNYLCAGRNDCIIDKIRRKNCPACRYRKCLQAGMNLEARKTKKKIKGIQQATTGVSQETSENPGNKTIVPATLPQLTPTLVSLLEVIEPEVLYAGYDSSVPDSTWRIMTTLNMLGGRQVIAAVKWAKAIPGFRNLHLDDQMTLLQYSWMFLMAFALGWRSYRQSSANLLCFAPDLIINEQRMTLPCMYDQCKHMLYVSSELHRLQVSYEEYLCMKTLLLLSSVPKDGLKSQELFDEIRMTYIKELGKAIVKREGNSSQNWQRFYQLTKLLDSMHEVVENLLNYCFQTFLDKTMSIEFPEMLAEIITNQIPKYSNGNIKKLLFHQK
# [2] = tested on: patients with psychotic major depression; assay: Double-blind placebo-controlled cross-over study of mifepristone in psychotic major depression; assay type: in vivo, human
# Text: The study requires a nine day, closely observed hospital stay. Individuals included in this study were diagnosed as psychotic depressives using criteria as set forth by the DSM-IV, as described above. This diagnosis was confirmed by two psychiatrists. All are between the ages of 18 and 75. Apart from hypercortisolemia, they have no major medical problems. They have no signs of Cushings Syndrome. No […] of childbearing potential are included in the study. Individuals admitting to having used illicit drugs within a month prior to admission for the study are excluded. Individuals admitting to drinking in excess of two ounces of alcohol daily are excluded from the study. No anti-psychotic medication was taken within three days of entering the study. While, concurrent anti-depressant was not a criteria used to excluded anyone from the study, no individual was started on an anti-depressant medication while participating in the study. All patients gave their written consent to a protocol approved by the Human Subjects Committee at Stanford University Medical Center. All participants were given the Hamilton Rating Scale for Depression (HAM-D, Hamilton (1962) J. Neurol. Psychiatry, supra, discussed above) and the Structured Clinical Interview for DSM-IV Axis I mood disorders tests (as described above). Only individuals with a score greater than 21 on the HAM-D test continued in the study (a HAM-D score of >21 indicates moderate to severe depression). […] Formal psychiatric assessment, including the HAM-D rating scale (Overall (1962) supra; Kaplan (1995), supra, discussed above), the Brief Psychiatric Rating Scale (BPRS) (Overall (1962) supra; Kaplan (1995), supra, discussed above) and the […] (GAF) evaluation (DSM-IV, supra, pages 30 to 31; Kaplan, ed. (1995), supra) was carried out on days one, three, five, seven and nine of the study at 10:00 AM (at 1000 hours). A paragraph recall test (see below) was given at 11:30 AM (at 1130 hours) on days one, five and nine. Cortisol levels were measured serially every half hour from […] to 4:00 PM (1300 to 1600 hours) on days one, five and nine. Plasma ACTH and Plasma HVA was measured serially every hour from 1300 to 1600 on days one, five and nine. Routine biological and hematological studies were conducted daily, particularly to screen for evidence of relative adrenal insufficiency, i.e., hypoglycemia, eosinophilia. One means used to assess/measure improvement, or amelioration of psychosis in the study was the “Wallach Recognition Test” (a paragraph recall test). Newly evaluated individuals with an initial diagnosis of psychotic major depression, diagnosed as described above, were given a recognition task adapted from Wallach (1980) supra. Subjects listened to a taped recording of a sixteen-word list presented at the rate of one word every ten seconds. The-subject repeats each of the sixteen words and is asked to think of what the words mean to them. Following the presentation of the list, the subject engages in a twenty minute motor distraction task. The subject then listens to a fifty-word list containing the sixteen original target words plus thirty-four background distraction words. The subject then is asked to discern between target words and distractors. Sixteen newly admitted patients with an admitting diagnosis of psychotic major depression confirmed by two psychiatrists were enrolled in the study. Each patient conformed with all of the above described criteria. […] In the patients administered mifepristone, three two hundred milligram tablets per day were given for four days. […] The tablets were manufactured by Shanghai HuaLian Pharmaceuticals Co., Ltd., Shanghai, China (currently the sole commercial source of RU486). Both patients and the investigators are “blind” as to which compound (test mifepristone or placebo) the patient received.
# [3] = one study; cited from earlier work
# [4] = tested on: patients with severe Cushing Syndrome; conditions: 400 to 800 mg per day; adrenal cancers and ectopic ACTH secretion from lung cancer; cited from earlier work
# [5] = tested on: patients with chronic severe depression; conditions: about 2.5 to 4.4 mg/kg per day, up to eight weeks; four patients; cited from earlier work
# [6] = target: T2, progesterone receptor (Homo sapiens, UniProt P06401); conditions: cited from earlier work
# T2 sequence (P06401 1-933): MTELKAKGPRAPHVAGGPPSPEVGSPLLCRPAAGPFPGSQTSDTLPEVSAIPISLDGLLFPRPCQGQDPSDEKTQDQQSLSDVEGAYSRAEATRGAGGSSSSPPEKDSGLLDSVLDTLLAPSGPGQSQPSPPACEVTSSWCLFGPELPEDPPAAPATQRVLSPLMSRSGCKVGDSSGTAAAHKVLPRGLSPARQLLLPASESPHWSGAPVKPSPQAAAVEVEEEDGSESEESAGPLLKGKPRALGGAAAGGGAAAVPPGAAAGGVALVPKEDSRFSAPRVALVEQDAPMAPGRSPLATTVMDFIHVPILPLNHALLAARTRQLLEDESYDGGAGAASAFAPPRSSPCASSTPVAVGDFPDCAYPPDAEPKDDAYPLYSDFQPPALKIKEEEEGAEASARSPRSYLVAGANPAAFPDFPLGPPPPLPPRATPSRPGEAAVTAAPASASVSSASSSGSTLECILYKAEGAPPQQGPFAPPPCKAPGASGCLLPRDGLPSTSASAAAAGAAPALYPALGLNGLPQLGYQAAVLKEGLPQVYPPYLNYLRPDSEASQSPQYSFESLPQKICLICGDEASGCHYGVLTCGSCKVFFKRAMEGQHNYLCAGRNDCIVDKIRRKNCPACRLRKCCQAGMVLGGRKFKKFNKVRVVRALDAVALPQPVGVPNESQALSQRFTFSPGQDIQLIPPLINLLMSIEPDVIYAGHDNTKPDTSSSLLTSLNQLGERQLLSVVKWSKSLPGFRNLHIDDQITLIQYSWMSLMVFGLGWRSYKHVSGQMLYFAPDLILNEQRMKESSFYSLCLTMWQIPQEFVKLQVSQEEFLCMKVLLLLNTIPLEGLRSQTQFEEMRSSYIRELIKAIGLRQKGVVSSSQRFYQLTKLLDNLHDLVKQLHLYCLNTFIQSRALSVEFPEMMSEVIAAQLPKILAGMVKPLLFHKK
SMILES,GR antagonist activity [1],"adverse effects reported by patient or observed by raters or staff ([2]; 600 mg per day orally, four days)","psychiatric condition ([2]; 600 mg per day orally, four days, three patients completed, blind not broken)",Wallach Recognition Test: amelioration of psychosis ([2]; all individuals who received mifepristone),"HAM-D score after treatment ([2]; average, score after decline)","HAM-D score before treatment ([2]; average, starting score)",Brief Psychiatric Rating Scale (BPRS) score after treatment ([2]; score after decline),"Clinical Global Impression (CGI scale) score after treatment ([2]; score after drop, mildly depressed)",Brief Psychiatric Rating Scale (BPRS) score before treatment ([2]; starting score),"Clinical Global Impression (CGI scale) score before treatment ([2]; starting score, indicating markedly depressed)",fraction of the daily dose excreted in the urine [3],effect on acute psychosis [4],response to treatment [5],progesterone receptor antagonist activity [6]
"CC#C[C@]1(O)CC[C@H]2[C@@H]3CCC4=CC(=O)CCC4=C3[C@@H](c3ccc(OCCN(C)C)cc3)C[C@@]21C [RU009, 11-beta-(4 dimethyl-amninoethoxyphenyl)-17-alpha-(propynyl-17beta-hydroxy-4,9-estradien-3-one)]",GR antagonist effects,–,–,–,–,–,–,–,–,–,–,–,–,–
"CC#C[C@]1(O)CC[C@H]2[C@@H]3CCC4=CC(=O)CCC4=C3[C@@H](c3ccc(N(C)C)cc3)C[C@@]21C [mifepristone, 17-beta-hydroxy-11-beta-(4-dimethyl-aminophenyl)-17-alpha-(1-propynyl)-estra-4,9-dien-3-one]",powerful antagonist,no adverse effects,significant improvement,showed an amelioration of their psychosis,about 13.5,about 26,about 29.5,about 3,about 40.5,about 5,less than 0.5%,useful in rapidly reversing acute psychosis,responded to treatment,powerful antagonist
